Source: patent US8580773B2, “Small-molecule inhibitors of the androgen receptor” (The Regents of the University of California, priority 2008, dated 2013)
Entries after “also recorded” stand apart in the source; their conditions may differ. Where a name gives a salt, the structure may show the parent alone.

Tests used:
[1] = Pharmacokinetics in mice, drug levels by mass spectrometry; assay type: in vivo
From the text: Serum samples were obtained at fixed time intervals, and the drug levels determined by mass spectrometry.

HEK293 cells = assay: Cell proliferation (DNA content, DAPI) in control HEK293 cells; assay type: cell-based; conditions: PP 100 nM, HH 100 nM, BiC 1 μM
From the text: (§1) LN-AR cells were created by retroviral infection of a high-expressing AR vector into LNCaP cells, and proliferate independent of androgen in cell culture, unlike their parental line (Chen, C. D., et al., Molecular determinants of resistance to antiandrogen therapy. Nat Med, 2004. 10(1): p. 33-9). HEK293 cells were used as a control. Cells were transferred to charcoal-stripped media two days before they were split and plated in quadruplicate at a density of approximately 20,000 cells/well in 48-well plates. […] Media were changed every day, using a single preparation to ensure consistent compound concentrations. Proliferation was determined by measuring the DNA content of the cells in each well. Each day, the cells in four wells were fixed in 100% cold methanol, followed by staining for 5 min at RT with 0.2 ng/mL 4′,6-diamidino-2-phenylindole (DAPI) in PBS. The cells were washed once in PBS, then read on a fluorescence plate reader using 365/439 excitation/emission wavelengths. LAPC4 and LNCaP cells proliferated to a much greater degree in the presence of DHT, while LN-AR cells proliferated in the presence and absence of DHT.

LNCaP cells = assay: Cell proliferation (DNA content, DAPI) in LNCaP cells; assay type: cell-based, human; conditions: 3 nM DHT, PP 100 nM, HH 100 nM, BiC 1 μM, seven days, hydrochloride
From the text: as §1

AR = target: T1, AR (Homo sapiens, UniProt P10275, T878A); assay: DHT titration against inhibitor, PSA-luciferase reporter in LNCaP cells (competitive vs non-competitive); assay type: cell-based; conditions: moderate dose of inhibitor, DHT titrated, hydrochloride
T1 construct: that each express endogenous AR; endogenous in cells; host or cells: LNCaP

LAPC4 cells = assay: Cell proliferation (DNA content, DAPI) in LAPC4 cells; assay type: cell-based, human; conditions: 3 nM DHT, PP 100 nM, HH 100 nM, BiC 1 μM, seven days
From the text: as §1

human androgen receptor = target: T2, human androgen receptor (Homo sapiens, UniProt P10275); assay: Screen of 1040 FDA-approved drugs and natural products for AR antagonists (MMTV-luciferase transcription assay and C-AR-Y FRET conformation assays); assay type: cell-based; conditions: test compounds at 10 μM, 10 nM DHT, 24 hours; validated by dose-response
T2 construct: expressed in transfected cells; host or cells: HEK293 and LAPC4 stably expressing C-AR-Y; HEK293 transiently transfected with native AR
T2 sequence (P10275 1-920): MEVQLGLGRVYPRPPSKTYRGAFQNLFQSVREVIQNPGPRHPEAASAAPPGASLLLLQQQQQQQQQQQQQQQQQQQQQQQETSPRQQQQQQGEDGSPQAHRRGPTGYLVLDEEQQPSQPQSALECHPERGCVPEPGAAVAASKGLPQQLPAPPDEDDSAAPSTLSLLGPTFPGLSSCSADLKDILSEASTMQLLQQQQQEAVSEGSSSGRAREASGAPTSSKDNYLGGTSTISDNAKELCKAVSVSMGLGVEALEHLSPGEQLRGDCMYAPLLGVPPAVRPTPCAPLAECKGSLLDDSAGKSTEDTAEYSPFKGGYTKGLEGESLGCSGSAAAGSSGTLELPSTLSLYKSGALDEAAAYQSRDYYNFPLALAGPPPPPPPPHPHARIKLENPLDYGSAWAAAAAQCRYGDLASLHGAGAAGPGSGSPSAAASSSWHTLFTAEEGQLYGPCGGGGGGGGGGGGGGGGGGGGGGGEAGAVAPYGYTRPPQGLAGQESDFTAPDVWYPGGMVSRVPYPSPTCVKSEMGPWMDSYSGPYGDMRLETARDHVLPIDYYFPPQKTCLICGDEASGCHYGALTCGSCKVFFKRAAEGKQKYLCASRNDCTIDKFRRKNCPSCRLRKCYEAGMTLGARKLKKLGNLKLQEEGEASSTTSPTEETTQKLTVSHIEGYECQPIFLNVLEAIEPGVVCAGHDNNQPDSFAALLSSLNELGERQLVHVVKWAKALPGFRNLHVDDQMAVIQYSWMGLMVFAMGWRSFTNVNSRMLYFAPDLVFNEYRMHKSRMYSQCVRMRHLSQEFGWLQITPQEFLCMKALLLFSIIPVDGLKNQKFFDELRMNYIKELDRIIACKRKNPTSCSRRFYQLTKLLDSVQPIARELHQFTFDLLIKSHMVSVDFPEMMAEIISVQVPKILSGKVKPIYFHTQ
Experimental: A library assembled by the NINDS was screened. The library consisted of 1040 FDA-approved drugs and natural products. A basic strategy to select and compare compounds from each of the primary screens was established (FIG. 1).
The transcription assay was conducted by transfecting 10 cm plates of HEK293 cells with plasmids encoding MMTV-luciferase, SV40-renilla luciferase, and native AR. […] FRET is fluorescence resonance energy transfer between cyan and yellow fluorescent protein derivatives (CFP, YFP) that are fused to the amino and carboxyl termini of the human androgen receptor. When ligand activates the receptor, a conformational change takes place that brings the CFP and YFP into close proximity, thereby allowing FRET to occur. This spectroscopic change is detected using a fluorescence plate reader.
For the transcription assay, transfected cells were pooled before being plated into 96-well dishes with the test compounds at 10 μM. […] Cell and compound transfers were accomplished with a liquid handling robot. Cells were cultured for 24 hours in the presence of 10 nM DHT and the test compounds. After 24 hours, cells were either lysed by freeze-thaw (transcription assay), or fixed in 4% paraformaldehyde for reading on the FPR (FRET assays). Each compound was tested in duplicate in the initial screen.
The compounds were sorted on the basis of anti-androgen effects. […] This eliminated situations in which one test gave a strong response, and the replicate had none. […] For the FRET assays, toxic compounds were easily detected because of their effect on raw CFP and YFP signal, and compounds that reduced this signal below two standard deviations were eliminated.
The top 50 compounds identified in each primary assay were then tested in the other two assays.

T1 sequence (P10275 whole entry T878A): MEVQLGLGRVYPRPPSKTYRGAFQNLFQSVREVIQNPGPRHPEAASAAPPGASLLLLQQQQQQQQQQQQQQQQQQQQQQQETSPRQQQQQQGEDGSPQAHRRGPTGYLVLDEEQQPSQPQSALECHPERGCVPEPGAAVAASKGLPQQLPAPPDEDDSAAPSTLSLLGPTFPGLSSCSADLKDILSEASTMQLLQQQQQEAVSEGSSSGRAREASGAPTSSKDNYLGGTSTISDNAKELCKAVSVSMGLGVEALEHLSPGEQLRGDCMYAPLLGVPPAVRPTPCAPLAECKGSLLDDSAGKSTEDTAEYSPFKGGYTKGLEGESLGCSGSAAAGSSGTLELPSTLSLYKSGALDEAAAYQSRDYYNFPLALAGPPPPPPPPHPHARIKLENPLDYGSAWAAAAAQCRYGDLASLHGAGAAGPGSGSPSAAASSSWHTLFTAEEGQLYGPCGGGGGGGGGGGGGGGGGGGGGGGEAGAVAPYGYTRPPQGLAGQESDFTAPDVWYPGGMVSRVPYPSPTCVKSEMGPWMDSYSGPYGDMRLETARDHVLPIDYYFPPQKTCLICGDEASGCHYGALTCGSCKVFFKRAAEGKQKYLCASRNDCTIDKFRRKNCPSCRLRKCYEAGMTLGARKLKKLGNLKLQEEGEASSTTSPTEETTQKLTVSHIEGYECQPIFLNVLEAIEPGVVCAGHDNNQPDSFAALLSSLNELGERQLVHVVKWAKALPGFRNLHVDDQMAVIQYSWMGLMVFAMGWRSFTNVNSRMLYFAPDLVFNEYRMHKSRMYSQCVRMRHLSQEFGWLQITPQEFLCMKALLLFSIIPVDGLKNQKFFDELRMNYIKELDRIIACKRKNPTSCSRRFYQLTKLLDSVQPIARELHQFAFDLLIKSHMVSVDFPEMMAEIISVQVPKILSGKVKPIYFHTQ

Cc1nccc2c1[nH]c1cc(O)ccc12 [HH, harmol hydrochloride]
Plasma concentration ([1]; mice, single IP injection 5 mg/kg, 1 hr): 5.0 ng/mL
Clearance / half-life (in words) ([1]; wild-type FVB mice, single intraperitoneal injection): rapidly cleared
Non-specific growth inhibition (HEK293 cells): Neither compound exhibited non-specific growth inhibition
Inhibition of cell growth (LNCaP cells): inhibited significantly; also recorded: growth-inhibitory properties
Mode of antagonism on DHT titration (AR): inhibited maximal DHT-induced activation; also recorded: consistent with a non-competitive antagonist
Inhibition of cell growth (LAPC4 cells): not effective
Anti-androgen activity in screen (human androgen receptor): previously unrecognized anti-androgen activity
